Assay results from ChEMBL document CHEMBL5543167, “Design, Synthesis, and Biological Evaluation of Novel EGFR PROTACs Targeting C797S Mutation” (J Med Chem, 2024).
The source made the active and inactive calls. The rule behind the calls is not given here.

How the values were obtained:
[1] = Antitumor activity against human H1975-TM cells xenografted in BALB/c nude mouse assessed as tumor growth inhibition at 25 mg/kg, po administered once daily for 31 days relative to control; format: functional; settings: 744 h, time 31 day, read-out: TGI
[2] = Potency index, ratio of brigatinib IC50 to test compound IC50 for antiproliferative activity against human […] cells harboring EGFR L858R/T790M/C797S mutant assessed as inhibition of cell growth incubated for 72 hrs by CCK-8 assay; format: functional, H1975-TM
[3] = target: Epidermal growth factor receptor (Homo sapiens, UniProt P00533, C797S/L858R/T790M); experiment: Binding affinity to EGFR L858R/T790M/C797S mutant (unknown origin) assessed as dissociation constant incubated for 10 mins under dark condition by MST analysis
[4] = system: Protein cereblon/Epidermal growth factor receptor (Homo sapiens), P00533+Q96SW2 [L858R,T790M,C797S]; experiment: PROTAC activity at CRBN/EGFR L858R/T790M/C797S mutant in human H1975-TM cells assessed as induction of EGFR degradation by measuring remaining activity at 100 nM preincubated for 24 hrs followed by compound washout and measured after 3 hrs by Western blot analysis (reference value: 100%); format: cell-based
[5] = Tmax in male Sprague-Dawley rat at 5 mg/kg, iv measured after 24 hrs by LC-MS/MS analysis; format: ADME, organism-based; settings: in vivo
H1975-TM = experiment: Antitumor activity against human H1975-TM cells xenografted in BALB/c nude mouse assessed as decrease in tumor cell proliferation at 25 to 100 mg/kg, po administered once daily for 31 days by Ki67 staining based light microscopic analysis; format: functional, organism-based; settings: dose 25-100 mg/kg, time 31.0 day
[6] = Antitumor activity against human H1975-TM cells xenografted in BALB/c nude mouse assessed as tumor growth inhibition at 100 mg/kg, po administered once daily for 31 days relative to control; format: functional; settings: 744 h, time 31 day, read-out: TGI
[7] = system: Protein cereblon/Epidermal growth factor receptor (Homo sapiens), P00533+Q96SW2 [UNDEFINED MUTATION]; experiment: (§1) PROTAC activity at CRBN/EGFR exon 19 deletion/T790M/C797S mutant in human PC-9-TM cells assessed as induction of EGFR degradation incubated for 24 hrs by Western blot analysis; format: cell-based
[8] = target: Protein cereblon/Epidermal growth factor receptor (Homo sapiens, UniProt P00533+Q96SW2); experiment: as §1; format: cell-based
[9] = Cmax in male Sprague-Dawley rat at 5 mg/kg, iv measured after 24 hrs by LC-MS/MS analysis; format: ADME, organism-based; settings: in vivo
A549 = experiment: Antiproliferative activity against human A549 cells harboring wildtype EGFR assessed as inhibition of cell proliferation incubated for 72 hrs by CCK8 assay; format: functional, cell-based; settings: A549, 72 h
Mus musculus [10] = experiment: In vivo inhibition of EGFR signaling in BALB/c nude mouse xenografted with human […] cells assessed as reduction in EGFR phosphorylation at 25 to 100 mg/kg, po administered once daily for 31 days by Western blot analysis; format: functional, organism-based; settings: dose 25-100 mg/kg, time 31.0 day
[11] = system: Protein cereblon/Epidermal growth factor receptor (Homo sapiens), P00533+Q96SW2 [L858R,T790M,C797S]; experiment: PROTAC activity at CRBN/EGFR L858R/T790M/C797S mutant in human H1975-TM cells assessed as induction of EGFR degradation by measuring remaining activity at 100 nM preincubated for 24 hrs followed by compound washout and measured after 48 hrs by Western blot analysis (reference value: 100%); format: cell-based
[12] = Antiproliferative activity against human HI975-TM cells harboring EGFR L858R/T790M/C797S mutant assessed as inhibition of cell growth incubated for 72 hrs by CCK-8 assay; format: functional, cell-based; settings: H1975-TM
[13] = target: Sodium-coupled neutral amino acid symporter 2 (Homo sapiens) (UniProt Q96QD8); experiment: Induction of SLC38A2 degradation in human H1975-TM cells at 50 nM incubated for 24 hrs; format: cell-based
[14] = target: Epidermal growth factor receptor (Homo sapiens) (UniProt P00533); experiment: Inhibition of EGFR signaling in human H1975-TM cells harboring EGFR L858R/T790M/C797S mutant assessed as reduction in EGFR phosphorylation by Western blot analysis; format: cell-based; settings: dose 1.2-300 nM
[15] = target: Protein cereblon/Epidermal growth factor receptor (Homo sapiens, UniProt P00533+Q96SW2, T790M/C797S/L858R); experiment: PROTAC activity at CRBN/EGFR L858R/T790M/C797S mutant in human H1975-TM cells assessed as induction of EGFR degradation incubated for 24 hrs by Western blot analysis; format: cell-based
[16] = system: Protein cereblon/Epidermal growth factor receptor (Homo sapiens), P00533+Q96SW2 [L858R,T790M,C797S]; experiment: PROTAC activity at CRBN/EGFR L858R/T790M/C797S mutant in human H1975-TM cells assessed as induction of EGFR degradation by measuring maximal efficacy at 300 nM incubated for 24 hrs by Western blot analysis relative to control; format: cell-based
[17] = Toxicity in BALB/c nude mouse xenografted with human H1975-TM cells assessed as effect on body weight at 25 to 100 mg/kg, po administered once daily for 31 days; format: organism-based; settings: in vivo, 744 h, dose 25-100 mg/kg, time 31 day
[18] = system: Protein cereblon/Epidermal growth factor receptor (Homo sapiens), P00533+Q96SW2 [L858R,T790M,C797S]; experiment: PROTAC activity at CRBN/EGFR L858R/T790M/C797S mutant in human H1975-TM cells assessed as induction of EGFR degradation by measuring remaining activity at 100 nM preincubated for 24 hrs followed by compound washout and measured after 12 hrs by Western blot analysis (reference value: 100%); format: cell-based
[19] = target: Cyclin-dependent kinase 12 (Homo sapiens) (UniProt Q9NYV4); experiment: Induction of CDK12 degradation in human H1975-TM cells at 50 nM incubated for 24 hrs; format: cell-based
Mus musculus [20] = experiment: In vivo inhibition of EGFR signaling in BALB/c nude mouse xenografted with human […] cells assessed as reduction in ERK activation at 25 to 100 mg/kg, po administered once daily for 31 days by Western blot analysis; format: functional, organism-based; settings: dose 25-100 mg/kg, time 31.0 day
[21] = system: Protein cereblon/Epidermal growth factor receptor (Homo sapiens), P00533+Q96SW2 [L858R,T790M,C797S]; experiment: PROTAC activity at CRBN/EGFR L858R/T790M/C797S mutant in human H1975-TM cells assessed as induction of EGFR degradation by measuring remaining activity at 50 nM preincubated with MG132 for 6 hrs followed by compound addition and measured after 24 hrs by Western blot analysis (reference value: 100%); format: cell-based
[22] = Antiproliferative activity against human PC-9-TM cells harboring EGFR exon 19 deletion/T790M/[…] mutant assessed as inhibition of cell proliferation incubated for 72 hrs by CCK8 assay; format: functional, cell-based
Mus musculus [23] = experiment: In vivo inhibition of EGFR signaling in BALB/c nude mouse xenografted with human […] cells assessed as reduction in AKT activation at 25 to 100 mg/kg, po administered once daily for 31 days by Western blot analysis; format: functional, organism-based; settings: dose 25-100 mg/kg, time 31.0 day
[24] = MRT (0 to infinity) in male Sprague-Dawley rat at 50 mg/kg, po measured after 24 hrs by LC-MS/MS analysis; format: ADME, organism-based; settings: in vivo
[25] = AUC (0 to infinity) in male Sprague-Dawley rat at 5 mg/kg, iv measured after 24 hrs by LC-MS/MS analysis; format: ADME, organism-based; settings: in vivo

Sequence of Sodium-coupled neutral amino acid symporter 2 (Homo sapiens) (Q96QD8 whole entry): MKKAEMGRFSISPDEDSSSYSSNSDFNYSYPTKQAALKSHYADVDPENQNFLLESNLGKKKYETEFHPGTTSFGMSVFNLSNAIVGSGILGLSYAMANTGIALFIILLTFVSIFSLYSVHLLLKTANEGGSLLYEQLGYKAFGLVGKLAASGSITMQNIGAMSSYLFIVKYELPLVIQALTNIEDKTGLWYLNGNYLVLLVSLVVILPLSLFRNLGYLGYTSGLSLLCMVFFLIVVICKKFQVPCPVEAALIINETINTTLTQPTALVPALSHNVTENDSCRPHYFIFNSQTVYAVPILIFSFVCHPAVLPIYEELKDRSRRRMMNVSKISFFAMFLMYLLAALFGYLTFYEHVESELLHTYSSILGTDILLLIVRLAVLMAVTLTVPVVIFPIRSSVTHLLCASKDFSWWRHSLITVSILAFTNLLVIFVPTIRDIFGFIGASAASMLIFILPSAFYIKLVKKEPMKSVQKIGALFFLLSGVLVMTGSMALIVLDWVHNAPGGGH
Sequence of Cyclin-dependent kinase 12 (Homo sapiens) (Q9NYV4 whole entry, looked up): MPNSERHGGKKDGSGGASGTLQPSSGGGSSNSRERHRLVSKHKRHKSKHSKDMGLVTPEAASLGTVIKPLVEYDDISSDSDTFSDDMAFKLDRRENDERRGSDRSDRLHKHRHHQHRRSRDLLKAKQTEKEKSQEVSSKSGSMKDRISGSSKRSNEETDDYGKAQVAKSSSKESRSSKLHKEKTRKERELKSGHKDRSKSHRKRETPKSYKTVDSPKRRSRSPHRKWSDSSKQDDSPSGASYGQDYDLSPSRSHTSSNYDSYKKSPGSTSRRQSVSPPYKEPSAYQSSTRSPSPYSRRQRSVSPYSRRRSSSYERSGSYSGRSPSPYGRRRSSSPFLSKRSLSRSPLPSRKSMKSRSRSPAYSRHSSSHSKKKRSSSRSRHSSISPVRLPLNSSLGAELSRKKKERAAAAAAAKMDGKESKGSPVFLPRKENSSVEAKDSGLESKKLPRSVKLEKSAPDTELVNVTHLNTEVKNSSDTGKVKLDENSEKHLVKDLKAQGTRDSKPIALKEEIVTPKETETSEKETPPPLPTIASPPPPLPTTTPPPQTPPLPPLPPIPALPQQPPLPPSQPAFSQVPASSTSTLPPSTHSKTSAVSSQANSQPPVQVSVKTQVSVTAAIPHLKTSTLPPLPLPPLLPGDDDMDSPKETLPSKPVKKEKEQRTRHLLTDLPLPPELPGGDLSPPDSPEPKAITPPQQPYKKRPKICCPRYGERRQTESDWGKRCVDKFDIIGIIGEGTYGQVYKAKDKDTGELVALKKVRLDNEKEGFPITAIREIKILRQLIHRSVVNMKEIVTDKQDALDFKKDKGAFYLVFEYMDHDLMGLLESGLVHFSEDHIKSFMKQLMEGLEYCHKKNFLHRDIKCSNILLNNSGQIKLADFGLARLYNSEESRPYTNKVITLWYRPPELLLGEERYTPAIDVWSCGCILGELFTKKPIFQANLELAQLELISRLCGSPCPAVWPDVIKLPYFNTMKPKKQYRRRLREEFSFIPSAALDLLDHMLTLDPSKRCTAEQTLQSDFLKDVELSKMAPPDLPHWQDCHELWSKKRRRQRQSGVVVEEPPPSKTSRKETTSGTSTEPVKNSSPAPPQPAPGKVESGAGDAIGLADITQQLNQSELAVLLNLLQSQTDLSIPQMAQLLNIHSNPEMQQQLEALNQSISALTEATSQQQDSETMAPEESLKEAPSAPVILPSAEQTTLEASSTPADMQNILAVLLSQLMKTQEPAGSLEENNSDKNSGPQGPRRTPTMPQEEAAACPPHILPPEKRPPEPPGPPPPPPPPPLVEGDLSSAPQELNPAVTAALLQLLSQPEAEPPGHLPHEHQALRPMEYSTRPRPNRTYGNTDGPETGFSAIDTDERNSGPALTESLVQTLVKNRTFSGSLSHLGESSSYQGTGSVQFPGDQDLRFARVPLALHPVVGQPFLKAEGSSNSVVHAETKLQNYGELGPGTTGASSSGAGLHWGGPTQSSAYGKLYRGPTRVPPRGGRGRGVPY
Sequence of Protein cereblon/Epidermal growth factor receptor (Homo sapiens, UniProt P00533+Q96SW2, T790M/C797S/L858R) (P00533 25-1210 T790M/C797S/L858R limits assumed, stated change not applied): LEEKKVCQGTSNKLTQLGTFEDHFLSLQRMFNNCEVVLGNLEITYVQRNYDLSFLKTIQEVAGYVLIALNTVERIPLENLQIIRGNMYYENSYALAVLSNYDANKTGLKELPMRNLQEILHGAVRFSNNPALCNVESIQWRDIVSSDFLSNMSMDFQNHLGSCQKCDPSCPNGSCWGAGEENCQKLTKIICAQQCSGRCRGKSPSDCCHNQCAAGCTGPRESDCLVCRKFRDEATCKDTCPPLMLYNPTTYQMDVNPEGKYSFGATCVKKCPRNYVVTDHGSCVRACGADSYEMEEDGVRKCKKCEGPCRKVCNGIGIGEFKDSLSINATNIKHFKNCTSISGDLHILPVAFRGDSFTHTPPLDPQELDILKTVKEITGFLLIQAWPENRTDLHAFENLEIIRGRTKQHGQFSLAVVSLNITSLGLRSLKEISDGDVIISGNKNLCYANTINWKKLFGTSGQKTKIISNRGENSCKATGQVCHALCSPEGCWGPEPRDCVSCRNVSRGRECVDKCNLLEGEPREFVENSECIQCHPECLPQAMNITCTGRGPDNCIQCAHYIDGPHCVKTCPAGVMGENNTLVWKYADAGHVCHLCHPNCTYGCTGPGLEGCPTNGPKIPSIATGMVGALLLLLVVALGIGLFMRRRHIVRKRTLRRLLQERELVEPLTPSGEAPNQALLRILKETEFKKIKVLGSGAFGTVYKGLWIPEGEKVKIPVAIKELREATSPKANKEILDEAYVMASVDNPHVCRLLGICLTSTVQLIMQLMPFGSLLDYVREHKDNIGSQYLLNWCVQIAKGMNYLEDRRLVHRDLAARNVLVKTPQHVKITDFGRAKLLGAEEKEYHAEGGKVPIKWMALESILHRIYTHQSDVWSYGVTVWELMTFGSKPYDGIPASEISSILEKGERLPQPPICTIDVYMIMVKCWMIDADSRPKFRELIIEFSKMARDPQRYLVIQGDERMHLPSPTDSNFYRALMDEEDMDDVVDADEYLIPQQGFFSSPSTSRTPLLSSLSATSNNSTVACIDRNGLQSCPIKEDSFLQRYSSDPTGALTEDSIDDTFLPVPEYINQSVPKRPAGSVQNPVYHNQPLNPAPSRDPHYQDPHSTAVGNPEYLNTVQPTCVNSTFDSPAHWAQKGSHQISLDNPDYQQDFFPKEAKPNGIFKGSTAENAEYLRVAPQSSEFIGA
Sequence of Protein cereblon/Epidermal growth factor receptor (Homo sapiens, UniProt P00533+Q96SW2, T790M/C797S/L858R) (Q96SW2 whole entry, stated change not applied): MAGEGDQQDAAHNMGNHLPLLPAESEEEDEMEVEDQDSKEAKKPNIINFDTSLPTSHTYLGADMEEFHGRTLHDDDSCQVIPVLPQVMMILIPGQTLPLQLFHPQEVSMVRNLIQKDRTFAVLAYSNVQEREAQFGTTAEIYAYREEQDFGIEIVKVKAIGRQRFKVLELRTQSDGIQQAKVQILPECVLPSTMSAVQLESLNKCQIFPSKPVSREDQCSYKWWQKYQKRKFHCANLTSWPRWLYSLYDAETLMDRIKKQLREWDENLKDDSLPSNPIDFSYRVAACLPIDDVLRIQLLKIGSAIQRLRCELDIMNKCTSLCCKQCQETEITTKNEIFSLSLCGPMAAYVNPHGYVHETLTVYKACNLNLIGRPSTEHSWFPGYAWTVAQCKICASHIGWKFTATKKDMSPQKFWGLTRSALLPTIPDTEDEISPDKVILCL
Sequence of Epidermal growth factor receptor (P00533 25-1210 T790M/C797S/L858R limits assumed): as the sequence (P00533 25-1210 T790M/C797S/L858R limits assumed, stated change not applied) above

CCS(=O)(=O)n1cc(-c2nc(Nc3ccc(N4CCN(CCCCCCC(=O)Nc5cccc6c5CN(C5CCC(=O)NC5=O)C6=O)CC4)cc3)ncc2C(F)(F)F)c2ccccc21 (configuration not stated)
inhibition in vivo at 25 mg/kg [1]: 48.1%
Ratio IC50 [2]: 55
Kd [3]: 240 nM
Activity [4]: 8.5%
Tmax [5]: 4.8 min
Activity (H1975-TM): Active
inhibition in vivo at 100 mg/kg [6]: 66.4%
Activity [7]: Dose-Dependent Effect
DC50 [8]: 36.5 nM
Cmax [9]: 4600 ng/mL
IC50 (A549): 97.5 nM
inhibition (Mus musculus [10]): Active
Activity [11]: 66.6%
IC50 [12]: 10.3 nM
Activity [13]: Active
inhibition [14]: Dose-Dependent Effect
DC50 [15]: 10.2 nM
Emax [16]: > 95%
Activity [17]: Non-Toxic
Activity [18]: 49.7%
Activity [19]: Active
inhibition (Mus musculus [20]): Active
Activity [21]: 73.6%
IC50 [22]: 43.5 nM
inhibition (Mus musculus [23]): Active
MRT inf [24]: 21.4 h
AUC(0-inf) [25]: 1800 ng·h/mL
